Legend:
[1] = test system: dog; conditions: Chronic toxicity, beagle, Oral, Capsule, dose end: 6 month, group: systemic
[2] = test system: rat; conditions: Subchronic oral toxicity in rodents, wistar, Gavage/Intubation, dose end: 3 month, group: systemic
[3] = test system: dog; conditions: Chronic toxicity, beagle, Oral, Capsule, dose end: 1 year, group: systemic
[4] = test system: rat; conditions: Chronic toxicity, wistar, Oral, Gavage/Intubation, dose end: 6 month, group: systemic
[5] = test system: rat; conditions: Fertility (Segment I), wistar, Oral, Gavage/Intubation, dose end: 7 GD
[6] = test system: rat; conditions: Carcinogenicity, wistar, Oral, Gavage/Intubation, dose end: 24 month, group: systemic
[7] = test system: mouse; conditions: Fertility (Segment I); other; Injection; Intravenous; dose end: 3 GD; group: parental; systemic / in life observation / clinical signs / motor activity
[8] = test system: rat; conditions: Subchronic oral toxicity in rodents, wistar, Gavage/Intubation, dose end: 90 day, group: systemic
[9] = test system: rat; conditions: Peri- and post-natal toxicity study (Segment III); wistar; Injection; Intravenous; dose end: 21 PND; group: parental; systemic / in life observation / body weight / body weight gain + systemic / in life observation / clinical signs / motor activity + …
[10] = test system: rat; conditions: Multigenerational reproductive toxicity study, Crl: CD BR, Oral, Feed, dose end: 2 generation
[11] = test system: rat; conditions: Subchronic oral toxicity in rodents, fischer, Feed, dose end: 90 day, group: systemic, systemic / organ weight / kidney / absolute + systemic / organ weight / kidney / relative to body weight + systemic / pathology gross / …
[12] = test system: mouse; conditions: Carcinogenicity, cd1, Oral, Feed, dose end: 104 week, group: systemic
[13] = test system: rat; conditions: Combined chronic toxicity/carcinogenicity; sprague dawley; Oral; Feed; dose end: 104 week; group: systemic; systemic / pathology microscopic / liver / hypertrophy + systemic / pathology microscopic / stomach / hyperkeratosis + systemic / pathology …
[14] = test system: rat; conditions: Chronic toxicity, fischer, Oral, Feed, dose end: 104 week, group: systemic
[15] = test system: dog; conditions: Chronic toxicity, beagle, Oral, Capsule, dose end: 52 week, group: systemic
[16] = test system: dog; conditions: Chronic toxicity, beagle, Oral, Feed, dose end: 104 week, group: systemic
[17] = test system: dog; conditions: Subchronic oral toxicity in nonrodent, beagle, Feed, dose end: 13 week, group: systemic
[18] = test system: mouse; conditions: Carcinogenicity; cd1; Oral; Feed; dose end: 18 month; group: systemic; systemic / pathology microscopic / stomach / hyperplasia
[19] = test system: rabbit; conditions: Prenatal developmental toxicity study, new zealand white, Oral, Gavage/Intubation, dose end: 19 GD, group: maternal
[20] = systemic / clinical chemistry / alanine aminotransferase (alt/sgpt) / alanine aminotransferase (alt/sgpt)
[21] = systemic / clinical chemistry / alanine aminotransferase (alt/sgpt) / alanine aminotransferase (alt/sgpt) + systemic / in life observation…
[22] = systemic / clinical chemistry / alkaline phosphatase (alp/alk) / alkaline phosphatase (alp/alk) + systemic / clinical chemistry / calcium / …
[23] = systemic / clinical chemistry / glucose / glucose + systemic / hematology / hemoglobin (hgb) / hemoglobin (hgb) + systemic / hematology / …
[24] = systemic / clinical chemistry / alanine aminotransferase (alt/sgpt) / alanine aminotransferase (alt/sgpt) + systemic / clinical chemistry / …
[25] = systemic / hematology / reticulocyte / reticulocyte + systemic / in life observation / clinical signs / teeth whitening + systemic / in life…
[26] = systemic / in life observation / clinical signs / tooth-broken
[27] = group: maternal, reproductive / reproductive performance / estrous cycle / corpora lutea + reproductive / reproductive performance / implantations / …
[28] = group: parental, systemic / in life observation / body weight / body weight + systemic / in life observation / clinical signs / ataxia + systemic / in life …
[29] = systemic / in life observation / clinical signs / salivation + systemic / organ weight / liver / relative to body weight + systemic / in …
[30] = systemic / pathology microscopic / stomach / neoplasm nos + systemic / hematology / hematocrit (hct) / hematocrit (hct) + systemic / …
[31] = systemic / clinical chemistry / urea nitrogen / urea + systemic / hematology / blood clotting / blood clotting - clotting time + systemic / …
[32] = group: offspring, systemic / pathology gross / stomach / irregular surface + systemic / pathology gross / stomach / thickened + systemic / pathology …
[33] = group: parental, systemic / organ weight / kidney / relative to body weight + systemic / pathology gross / stomach / irregular surface + systemic / pathology…
[34] = systemic / pathology microscopic / kidney / hyperplasia + systemic / pathology microscopic / stomach / carcinoma + systemic / pathology …
[35] = systemic / pathology microscopic / kidney / hyperplasia + systemic / pathology microscopic / kidney / karyomegaly + systemic / in life …
[36] = systemic / pathology microscopic / kidney / karyomegaly
[37] = systemic / clinical chemistry / bilirubin / total bilirubin
[38] = systemic / pathology microscopic / liver / inflammation + systemic / clinical chemistry / alanine aminotransferase (alt/sgpt) / alanine …
[39] = systemic / in life observation / clinical signs / anorexia + systemic / in life observation / clinical signs / no feces

For `CC(C)c1ccc(C(=O)N=C(N)N)cc1S(C)(=O)=O.CS(=O)(=O)O` [Cariporide mesylate], the LEL [1, 20] was 8 mg/kg/day, the LOAEL [1, 21] was > 20 mg/kg/day and the NEL [1, 21] was 3.2 mg/kg/day. For the same molecule, the NOAEL [1, 21] was ≥ 20 mg/kg/day, the LOAEL [2, 22] was > 1000 mg/kg/day and the NOAEL [2, 22] was ≥ 1000 mg/kg/day. For the same molecule, the LEL [2, 23] was 400 mg/kg/day, the NEL [2, 23] was < 400 mg/kg/day and the LEL [3, 20] was 3.2 mg/kg/day. The NEL [3, 20] was < 3.2 mg/kg/day, the LOAEL [3, 24] was > 20 mg/kg/day and the NOAEL [3, 24] was ≥ 20 mg/kg/day. The LOAEL [4, 25] was 25 mg/kg/day, the NOAEL [4, 25] was 5 mg/kg/day and the LEL [4, 26] was 5 mg/kg/day. For the same molecule, the NEL [4, 26] was < 5 mg/kg/day, the LEL [5, 27] was 400 mg/kg/day and the LOAEL [5, 27] was > 400 mg/kg/day. The NEL [5, 27] was 100 mg/kg/day, the NOAEL [5, 27] was ≥ 400 mg/kg/day and the LOAEL [5, 28] was > 400 mg/kg/day. For the same molecule, the NEL [5, 28] was 25 mg/kg/day, the NOAEL [5, 28] was ≥ 400 mg/kg/day and the LEL ([5]; group: parental, systemic / in life observation / clinical signs / salivation) was 100 mg/kg/day. For the same molecule, the LEL [6, 29] was 12 mg/kg/day, the NEL [6, 29] was < 12 mg/kg/day and the LOAEL [6, 30] was > 400 mg/kg/day. For the same molecule, the NOAEL [6, 30] was ≥ 400 mg/kg/day, the LEL [7] was 150 mg/kg/day and the LOAEL [7] was > 150 mg/kg/day. The NEL [7] was 50 mg/kg/day, the NOAEL [7] was ≥ 150 mg/kg/day and the LOAEL [8, 31] was 100 mg/kg/day. For the same molecule, the NEL [8, 31] was 5 mg/kg/day, the NOAEL [8, 31] was 22 mg/kg/day and the LEL ([8]; systemic / organ weight / liver / relative to body weight) was 22 mg/kg/day. The LEL [9] was 125 mg/kg/day, the LOAEL [9] was > 125 mg/kg/day and the NEL [9] was 5 mg/kg/day. The NOAEL [9] was ≥ 125 mg/kg/day.
In the case of `N#Cc1c(Cl)c(Cl)c(Cl)c(C#N)c1Cl` [Chlorothalonil], the LEL [10, 32] is reported as 32.9 mg/kg/day, the LOAEL [10, 32] is reported as 32.9 mg/kg/day and the NEL [10, 32] is reported as < 32.9 mg/kg/day. For the same molecule, the NOAEL [10, 32] was < 32.9 mg/kg/day, the LEL [10, 33] was 28.6 mg/kg/day and the LOAEL [10, 33] was 28.6 mg/kg/day. For the same molecule, the NEL [10, 33] was < 28.6 mg/kg/day, the NOAEL [10, 33] was < 28.6 mg/kg/day and the LEL [11] was 175 mg/kg/day. The LOAEL [11] was 175 mg/kg/day, the NEL [11] was < 175 mg/kg/day and the NOAEL [11] was < 175 mg/kg/day. For the same molecule, the LOAEL ([12]; systemic / pathology microscopic / kidney / hyperplasia) was 26.2 mg/kg/day, the NEL [12, 34] was 1.5 mg/kg/day and the NOAEL [12, 34] was 6 mg/kg/day. It also gave an LEL ([12]; systemic / pathology microscopic / stomach / hyperkeratosis + systemic / pathology microscopic / stomach / hyperplasia) of 6 mg/kg/day, an LEL [13] of 0.7 mg/kg/day and an LOAEL [13] of 0.9 mg/kg/day. For the same molecule, the NEL [13] was < 0.7 mg/kg/day, the NOAEL [13] was < 0.9 mg/kg/day and the LOAEL [14, 35] was 175 mg/kg/day. The NOAEL [14, 35] was 15 mg/kg/day, the LEL [14, 36] was 1.5 mg/kg/day and the NEL [14, 36] was < 1.5 mg/kg/day. For the same molecule, the LEL [15, 20] was 15 mg/kg/day, the NEL [15, 20] was < 15 mg/kg/day and the LOAEL ([15]; systemic / in life observation / body weight / body weight gain) was 500 mg/kg/day. For the same molecule, the NOAEL ([15]; systemic / in life observation / body weight / body weight gain + systemic / clinical chemistry / alanine aminotransferase (alt/sgpt) / …) was 150 mg/kg/day, the LEL [16, 37] was 1.8 mg/kg/day and the NEL [16, 37] was < 1.8 mg/kg/day. The LOAEL ([16]; systemic / pathology microscopic / kidney / vacuolization + systemic / clinical chemistry / bilirubin / total bilirubin) was 3.5 mg/kg/day, the NOAEL ([16]; systemic / pathology microscopic / kidney / vacuolization + systemic / pathology microscopic / kidney / pigmentation) was 1.8 mg/kg/day and the LOAEL ([17]; systemic / pathology microscopic / liver / infiltration cellular + systemic / pathology microscopic / liver / inflammation) was 56.5 mg/kg/day. For the same molecule, the NOAEL ([17]; systemic / pathology microscopic / liver / infiltration cellular + systemic / pathology microscopic / liver / inflammation + systemic / …) was 5.6 mg/kg/day, the LEL [17, 38] was 5.6 mg/kg/day and the NEL [17, 38] was < 5.6 mg/kg/day. For the same molecule, the LEL [18] was 1.9 mg/kg/day, the LOAEL [18] was 1.9 mg/kg/day and the NEL [18] was < 1.9 mg/kg/day. For the same molecule, the NOAEL [18] was < 1.9 mg/kg/day, the LOAEL ([19]; systemic / in life observation / body weight / body weight gain + systemic / in life observation / food consumption / food consumption) was 500 mg/kg/day and the NOAEL ([19]; systemic / in life observation / body weight / body weight gain + systemic / in life observation / food consumption / food consumption + …) was 250 mg/kg/day. For the same molecule, the LEL [19, 39] was 250 mg/kg/day and the NEL [19, 39] was < 250 mg/kg/day.

Reference: EPA's ToxRefDB 2
